Results: patent US9364454B2, “Anti-inflammatory actions of neuroprotectin D1/protectin D1 and its natural stereoisomers” (The Brigham and Women's Hospital, Inc., priority 2005, dated 2016)
Entries after “also recorded” stand apart in the source; their conditions may differ.

Columns and labels:
[1] = system: FVB male mice; test: Acute inflammatory exudates: zymosan A murine peritonitis (leukocyte infiltration); assay type: in vivo, mouse; conditions: for anti-inflammatory potency in vivo, PMN infiltration (in words): dose range tested (FIG. 6), lavage at 2 h; for activity on PMN infiltration at higher doses / dose dependence (in words): higher doses (10 ng, 100 ng); for kind of joint anti-inflammatory action of PD1 and RvE1: 10 ng/mouse i.p. of either or both, 2 h
Description: Peritonitis was carried out using 6-8 week-old FVB male mice (Charles River Laboratories) fed laboratory Rodent Diet 5001 (Purina Mills) that were anesthetized with isoflurane, and compounds to be tested were administered intraperitoneally. […] Each compound tested or vehicle alone was suspended in 1 μl ethanol and mixed in sterile saline (120 μl). After intraperitoneal injections (either 2 or 4 hours of acute inflammation), the mice were sacrificed in accordance with the Harvard Medical Area Standing Committee on Animals protocol no. 02570, and peritoneal lavages were collected rapidly and placed in an ice bath (4° C.) for enumeration, differential counts, and further analysis.

[2] = system: human PMN transmigration across endothelial cells; test: Human PMN transmigration across HMEC monolayers, LTB4-induced; assay type: cell-based; conditions: compound 15 min, LTB4 10^-8 M 90 min
Description: PMN were freshly isolated from whole blood obtained by venipuncture from healthy human donors (who denied taking medication for 2 weeks prior to donation; BWH protocol no. 88-02642) and anti-coagulated with acid citrate dextrose as in (40, 41). Briefly, plasma and mononuclear cells were removed by aspiration from the buffy coat after centrifugation (400 g; 20 min) at room temperature. Histopaque (density 1.077) was from Sigma-Aldrich (St. Louis, Mo.). RBCs were sedimented using 2% gelatin, and residual RBCs were removed by lysis in ice-cold NH4Cl buffer. The cell suspensions were >90% PMN as determined by light microscopic evaluation. PMN were suspended at 5×10^7 cells/ml in HBSS with 10 mM Hepes, pH 7.4, and without Ca^2+ or Mg^2+ (Sigma-Aldrich, St. Louis, Mo.). PMN were used within 2 hours of their isolation.
Human Microvascular Endothelial Cells (HMEC; a gift from Francisco Candal of the Centers for Disease Control, Atlanta, Ga.) were obtained as primary cultures. For preparation of experimental HMEC monolayers, confluent endothelial cells were grown on 0.33 cm^2 ring-supported polycarbonate filters (5 μm pore size; Costar Corp., Cambridge, Mass.) in the apical-to-basolateral direction. Cells were grown for ˜1 week prior to transmigration experiments.
Transmigration was conducted essentially as in ref. (41). PMN were incubated with either vehicle-containing buffer or compound for 15 minutes at 37° C. A chemotactic gradient was established by placing HMEC inserts that had been washed in HBSS with Ca^2+ and Mg^2+ (denoted +/+) in 10^−8M LTB4 in the lower chambers. Neutrophils (10^6 cells) were added to 50 μl HBSS +/+ in the upper chambers and cells were incubated at 37° C. for 90 min. Transmigrated PMN were quantified by assessing the PMN azurophilic marker myeloperoxidase and a calibration curve. PMN were lysed by the addition of Triton X-100 to a final concentration of 0.5%. The samples were acidified with citrate buffer (final concentration 100 mM, pH 4.2). An aliquot of each sample was added to an equal volume of ABTS solution (1 mM ABTS [2′-azino-bis(3-ethylbenzo-thiazoline-6-sulfonic acid)], 0.03% H2O2, 100 mM sodium citrate buffer, pH 4.2) in a 96-well plate. The resulting color was monitored using a plate reader at 405 nm and a calibration curve for cell number.

Row | Structure (SMILES) | rank order of potency ([1]; 0.1 ng dose) | activity on PMN infiltration (in words) ([1]; 1 ng/mouse dose) | rank order of potency ([1]; 1-10 ng dose) | anti-inflammatory potency in vivo, PMN infiltration (in words) [1] | also measured
1 | CC/C=C\C[C@H](O)C#C/C=C/C=C/[C@H](O)C/C=C\C/C=C\CCC(=O)O [15,16-dehydro-PD1] |  |  |  |  | PMN infiltration (in words) ([1]; 10 ng/mouse, 4 h after injection (FIG. 9)): retained activity in vivo; also recorded: slightly less potent than the native PD1; also recorded: reduced PMN infiltration; also recorded: Statistically different from *zymosan A-injected mice; also recorded: less potent; recruitment of monocytes and lymphocytes to exudates (in words) ([1]; peritonitis, differential counts): increased the non-phlogistic recruitment of monocytes and lymphocytes
2 | CC/C=C\C[C@H](O)/C=C/C=C\C=C\[C@@H](O)C/C=C\C/C=C\CCC(=O)O [Compound I, 10S,17S-dihydroxy-docosa-4Z,7Z,11E,13Z,15E,19Z-hexaenoic acid] | Compound VI>>PD1>10S,17S-DT (the double dioxygenation product)>the Δ15-trans-PD1>>Compound V | did display some activity | PD1≈PD1 methyl ester>>Δ15-trans PD1>10S,17S-diHDHA (isomer I) | nor did it carry potent actions; also recorded: substantially less potent; also recorded: PD1 (Compound II)>>10S,17S-diHDHA (Compound I); also recorded: possesses some anti-inflammatory activity in vivo, albeit proved to be much less potent than natural or synthetic PD1 | activity on PMN infiltration (in words) ([1]; 0.1 ng dose, compared to PD1): not active; activity on PMN infiltration at higher doses / dose dependence (in words) [1]: blocked PMN infiltration, but it was less potent than PD1; also recorded: did not increase with higher doses in a statistically significant fashion
3 | CC/C=C\C[C@H](O)/C=C/C=C/C=C/[C@H](O)C/C=C\C/C=C\CCC(=O)O [Compound III, 10R,17S-dihydroxy-docosa-4Z,7Z,11E,13E,15E,19Z-hexaenoic-acid] | Compound VI>>PD1>10S,17S-DT (the double dioxygenation product)>the Δ15-trans-PD1>>Compound V | substantially less potent | PD1≈PD1 methyl ester>>Δ15-trans PD1>10S,17S-diHDHA (isomer I) | possesses little bioactivity in vitro or in vivo | effect on LTB4-induced PMN transmigration (in words) [2]: possesses little bioactivity in vitro or in vivo; effect on LTB4-induced PMN transmigration (in words) ([2]; listed as 415-trans-PD1): essentially inactive; effect on LTB4-induced PMN transmigration (in words) ([2]; listed as Δ15-trans isomer of PD1): did not block PMN transmigration in vitro
4 | CC/C=C\C[C@H](O)/C=C/C=C\C=C\[C@H](O)C/C=C\C/C=C\CCC(=O)O [Compound IV, 10R,17S-dihydroxy-docosa-4Z,7Z,11E,13Z,15E,19Z-hexaenoic-acid] |  | essentially equipotent |  |  | activity on PMN infiltration at higher doses / dose dependence (in words) [1]: did not increase potency in a dose-dependent fashion
5 | CC/C=C\C[C@@H](O)\C=C/C=C/C=C/[C@@H](O)C/C=C\C/C=C\CCC(=O)O [Compound V, 10S,17R,-dihydroxy-docosa-4Z,7Z,11E,13E,15Z,19Z-hexaenoic-acid] | Compound VI>>PD1>10S,17S-DT (the double dioxygenation product)>the Δ15-trans-PD1>>Compound V |  |  | essentially without activity | anti-inflammatory potency in vivo, PMN infiltration (in words) ([1]; listed as compound V): essentially inactive in vivo
6 | CC/C=C\C[C@H](O)\C=C/C=C/C=C/[C@@H](O)C/C=C\C/C=C\CCC(=O)O [Compound VI, 10S,17S-dihydroxy-docosa-4Z,7Z,11E,13E,15Z,19Z-hexaenoic-acid] | Compound VI>>PD1>10S,17S-DT (the double dioxygenation product)>the Δ15-trans-PD1>>Compound V |  |  | the most potent of these isomers in vivo | anti-inflammatory potency in vivo, PMN infiltration (in words) ([1]; listed as compound VI): carries bioactivity; anti-inflammatory potency in vivo, PMN infiltration (in words) ([1]; listed as isomer VI): ≧PD1
7 | CC/C=C\C[C@H](O)\C=C/C=C/C=C/[C@H](O)C/C=C\C/C=C\CCC(=O)OC [PD1 methyl ester] |  |  | PD1≈PD1 methyl ester>>Δ15-trans PD1>10S,17S-diHDHA (isomer I) |  | 
8 | CC[C@@H](O)/C=C/C=C\C[C@@H](O)/C=C/C=C/C=C\[C@@H](O)CCCC(=O)O [RvE1, 5S,12R,18R-trihydroxy-6Z,8E,10E,14Z,16E-eicosapentaenoic acid, reference compound] |  |  |  |  | kind of joint anti-inflammatory action of PD1 and RvE1 [1]: additive rather than synergistic; kind of joint anti-inflammatory action of PD1 and RvE1 ([1]; listed as resolvin E1): additive; PMN infiltration, PD1 and RvE1 administered together (in words) ([1]; 10 ng/mouse i.p., exudates at 2 h): reduced the infiltration of PMN
9 | CCC=CCC(O)C=CC=CC=CC(O)CC=CCC=CCCC(=O)OC (centres unmarked) [methyl ester of Compound VI] |  |  |  | potent regulator of PMN infiltration | 
